This is an account of results in patent US8586591B2, “Aminopyrazine derivative and medicine” (Nippon Shinyaku Co., Ltd., priority 2009, dated 2013).

The target of one experiment is T1, JAK2 tyrosine kinase (Homo sapiens, UniProt O60674).
T1 construct: purchased Carnabioscience Co
Nature of the experiment: Test 1: inhibitory activity to JAK2 tyrosine kinase (ELISA). To be noted: 25 μM ATP in substrate solution, 30° C. for 1 hour, n=2. The class given is biochemical. How it is done:
Test 1: Test for inhibitory activity to JAK2 and JAK3 tyrosine kinase 1. Preparation of Test Material
The test material was dissolved in dimethylsulfoxide (DMSO) to be 10 mM, and further diluted with DMSO to be 100-fold concentrations for measurement (1000, 300, 100, 30, 10, 3, 1, 0.3, 0.1, 0.03, 0.01 μM). In addition, solutions diluted with an assay buffer up to 20 times were used as solutions of the test material. As a negative control, a solution of DMSO diluted 20 times with an assay buffer was used. As the assay buffer, 15 mM Tris-Cl (pH 7.5), 0.01 v/v % Tween-20, and 1 mM dithiothreitol were used.
2. Measurement of the Activities of JAK2 and JAK3 Tyrosine Kinases
The activity was determined by ELISA. The solution of the test material (10 μl each; n=2) was placed in a streptavidine-coated 96 well plate (DELFIA Strip Plate 8×12 wells; Perkin Elmer), to which 20 μl each of substrate solution (625 nM biotin-labeled peptide substrate, 25 μM ATP, 25 mM MgCl2, 15 mM Tris-Cl (pH 7.5), 0.01 v/v % Tween-20, and 1 mM dithiothreitol), was added and stirred. Finally, 20 μl each of JAK2 tyrosine kinase (Carnabioscience Co.) (diluted to 0.75 nM with assay buffer) or JAK3 tyrosine kinase (Carnabioscience Co.) (diluted to 0.75 nM with assay buffer) was added, stirred and allowed to stand at 30° C. for 1 hour. The plate was washed 4 times with a washing buffer (50 mM Tris-Cl, pH 7.5, 150 mM NaCl, 0.02 v/v % Tween-20), and then a blocking buffer (0.1% Bovine Serum Albumin, 50 mM Tris-Cl, pH 7.5, 150 mM NaCl, 0.02 v/v % Tween-20)(150 μl each) was added for blocking at 30° C. for 30 minutes. Blocking buffer was removed, and there was added 100 μl each of horse radish peroxidase-labeled anti-phosphorylated tyrosin kinase antibody (BD Bioscience Co.) (diluted 10,000 times with blocking buffer). The plate was incubated at 30° C. for 30 minutes and then washed 4 times with a washing buffer, and 100 μl each of 3,3′,5,5′-tetramethylbenzidine (Sigma-Aldrich Co.) was added to develop color for 10 minutes. 0.1 M sulfuric acid (100 μl each) was added to stop the reaction. The absorbance was measured by means of a micro-plate reader (BIO-RAD; Model 3550) at 450 nm.
3. Analysis of the Results of the Measurement
The measured absorbance was subjected to a non-linear regression analysis by means of a SAS system (SAS Institute Inc.), and the concentration (IC50) of the test material which inhibited 50% of the activity of each tyrosine kinase was estimated.

The target in a further experiment is T2, JAK3 tyrosine kinase (Homo sapiens, UniProt P52333).
T2 construct: purchased Carnabioscience Co
T2 sequence (P52333 1-1124): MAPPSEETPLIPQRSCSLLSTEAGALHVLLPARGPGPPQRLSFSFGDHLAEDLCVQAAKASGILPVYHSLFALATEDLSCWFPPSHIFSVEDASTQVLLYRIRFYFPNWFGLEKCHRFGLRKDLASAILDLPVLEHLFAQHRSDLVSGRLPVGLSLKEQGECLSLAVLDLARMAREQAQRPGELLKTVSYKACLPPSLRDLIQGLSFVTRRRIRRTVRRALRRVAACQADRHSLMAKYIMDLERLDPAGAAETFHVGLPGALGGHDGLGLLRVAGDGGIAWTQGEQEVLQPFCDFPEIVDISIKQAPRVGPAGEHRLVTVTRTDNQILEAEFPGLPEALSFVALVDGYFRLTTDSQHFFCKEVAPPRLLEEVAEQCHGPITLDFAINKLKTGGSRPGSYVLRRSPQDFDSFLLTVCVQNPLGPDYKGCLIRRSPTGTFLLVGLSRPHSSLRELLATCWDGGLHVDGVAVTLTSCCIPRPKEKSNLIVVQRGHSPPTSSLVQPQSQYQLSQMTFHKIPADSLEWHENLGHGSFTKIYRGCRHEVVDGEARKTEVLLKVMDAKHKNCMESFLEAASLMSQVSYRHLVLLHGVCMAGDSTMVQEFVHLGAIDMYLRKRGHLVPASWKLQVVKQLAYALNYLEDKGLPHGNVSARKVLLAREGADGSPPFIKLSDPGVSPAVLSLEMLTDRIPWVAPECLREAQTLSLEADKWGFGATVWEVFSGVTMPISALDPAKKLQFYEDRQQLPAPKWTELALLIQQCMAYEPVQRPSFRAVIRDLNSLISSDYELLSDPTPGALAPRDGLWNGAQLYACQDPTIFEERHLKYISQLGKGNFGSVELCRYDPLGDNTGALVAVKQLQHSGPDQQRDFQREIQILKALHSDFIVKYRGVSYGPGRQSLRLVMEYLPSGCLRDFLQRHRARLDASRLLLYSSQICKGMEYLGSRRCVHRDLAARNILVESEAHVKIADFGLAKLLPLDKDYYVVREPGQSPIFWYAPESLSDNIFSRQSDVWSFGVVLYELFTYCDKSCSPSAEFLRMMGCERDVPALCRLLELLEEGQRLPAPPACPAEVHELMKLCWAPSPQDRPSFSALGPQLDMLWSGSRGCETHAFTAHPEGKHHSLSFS
Nature of the experiment: Test 1: inhibitory activity to JAK3 tyrosine kinase (ELISA). In kind it is biochemical. To be noted: 25 μM ATP in substrate solution, 30° C. for 1 hour, n=2. As for the experimental part:
Test 1: Test for inhibitory activity to JAK2 and JAK3 tyrosine kinase 1. […] The test material was dissolved in dimethylsulfoxide (DMSO) to be 10 mM, and further diluted with DMSO to be 100-fold concentrations for measurement (1000, 300, 100, 30, 10, 3, 1, 0.3, 0.1, 0.03, 0.01 μM). In addition, solutions diluted with an assay buffer up to 20 times were used as solutions of the test material. As a negative control, a solution of DMSO diluted 20 times with an assay buffer was used. […] 2. Measurement of the Activities of JAK2 and JAK3 Tyrosine Kinases The activity was determined by ELISA. […] The absorbance was measured by means of a micro-plate reader (BIO-RAD; Model 3550) at 450 nm. 3. Analysis of the Results of the Measurement The measured absorbance was subjected to a non-linear regression analysis by means of a SAS system (SAS Institute Inc.), and the concentration (IC50) of the test material which inhibited 50% of the activity of each tyrosine kinase was estimated.
(In an ELISA, binding on a coated surface is turned into a signal by an enzyme label.)

pIC50: −log10 of the molar value. Counter-ions that a name gives are not always drawn.

T1 sequence (O60674 whole entry): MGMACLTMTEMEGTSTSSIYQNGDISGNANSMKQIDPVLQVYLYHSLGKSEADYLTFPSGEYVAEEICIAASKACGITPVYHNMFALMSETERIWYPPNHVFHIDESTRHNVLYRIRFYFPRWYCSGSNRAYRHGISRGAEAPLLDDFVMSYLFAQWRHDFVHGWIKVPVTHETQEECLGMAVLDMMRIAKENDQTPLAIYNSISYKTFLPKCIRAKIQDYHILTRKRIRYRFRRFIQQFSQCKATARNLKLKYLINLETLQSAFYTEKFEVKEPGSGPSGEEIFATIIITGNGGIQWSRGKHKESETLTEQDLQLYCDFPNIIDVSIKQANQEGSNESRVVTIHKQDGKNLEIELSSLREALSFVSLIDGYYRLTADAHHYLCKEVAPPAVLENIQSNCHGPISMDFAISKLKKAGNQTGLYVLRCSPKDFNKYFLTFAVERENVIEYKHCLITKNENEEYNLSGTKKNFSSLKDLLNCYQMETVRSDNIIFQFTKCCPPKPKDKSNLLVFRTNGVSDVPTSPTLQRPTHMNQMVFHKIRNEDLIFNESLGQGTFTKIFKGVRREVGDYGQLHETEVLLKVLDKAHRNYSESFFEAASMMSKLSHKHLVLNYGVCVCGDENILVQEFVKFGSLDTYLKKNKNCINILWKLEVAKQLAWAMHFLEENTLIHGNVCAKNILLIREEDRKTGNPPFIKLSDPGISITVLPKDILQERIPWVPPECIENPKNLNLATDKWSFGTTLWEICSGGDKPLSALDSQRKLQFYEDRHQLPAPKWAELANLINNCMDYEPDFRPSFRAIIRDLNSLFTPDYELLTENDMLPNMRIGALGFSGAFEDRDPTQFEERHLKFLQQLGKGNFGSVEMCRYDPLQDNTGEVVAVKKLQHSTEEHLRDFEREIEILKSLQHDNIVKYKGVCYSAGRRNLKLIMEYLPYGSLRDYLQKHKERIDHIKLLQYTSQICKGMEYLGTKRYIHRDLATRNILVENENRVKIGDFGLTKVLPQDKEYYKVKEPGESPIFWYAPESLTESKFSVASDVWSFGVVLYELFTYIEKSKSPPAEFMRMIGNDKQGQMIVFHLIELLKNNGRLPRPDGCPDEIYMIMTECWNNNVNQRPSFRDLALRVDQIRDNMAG

With `C[C@H](Nc1nc(Nc2cnccn2)cc(N2CC(C(=O)N3CCOCC3)C2)n1)c1ccc(F)cc1` [Example 196, (S)-(1-{2-[1-(4-Fluorophenyl)ethylamino]-6-(pyrazin-2-ylamino)pyrimidin-4-yl}azetidin-3-yl) (morpholino) methanone], the pIC50 is 9.19 against JAK2 tyrosine kinase and 7.46 on JAK3 tyrosine kinase. On to `C[C@H](Nc1nc(Nc2cnccn2)cc(N2CCC(O)CC2)n1)c1ccc(F)cc1` [Example 71, (S)-1-{2-[1-(4-Fluorophenyl)ethylamino]-6-(pyrazin-2-ylamino)pyrimidin-4-yl}piperidin-4-ol hydrochloride], for which the pIC50 on JAK2 tyrosine kinase is 9.14; at JAK3 tyrosine kinase it was 7.59. On to `C[C@H](Nc1nc(Nc2cnccn2)cc(-c2nccs2)n1)c1ccc(F)cc1` [Example 54, (S)—N^2-[1-(4-Fluorophenyl)ethyl]-N^4-(pyrazin-2-yl)-6-(thiazol-2-yl)pyrimidine-2,4-diamine], for which the pIC50 was 7.66 against JAK2 tyrosine kinase and 5.74 against JAK3 tyrosine kinase.

Regarding `C[C@H](Nc1nc(Nc2cnccn2)cc(-c2ccc(O)nc2)n1)c1ccc(F)cc1` [Example 26, (S)-5-{2-[1-(4-Fluorophenyl)ethylamino]-6-(pyrazin-2-ylamino)pyrimidin-4-yl}pyridin-2-ol], the pIC50 was 9.57 at JAK2 tyrosine kinase and 7.55 against JAK3 tyrosine kinase.

On to `C[C@H](Nc1nc(Nc2cnccn2)cc(N2CCC[C@H]2CO)n1)c1ccc(F)cc1` [Example 69, ((S)-1-{2-[(S)-1-(4-Fluorophenyl)ethylamino]-6-(pyrazin-2-ylamino)pyrimidin-4-yl}pyrrolidin-2-yl)methanol], for which the pIC50 on JAK2 tyrosine kinase is 8.59; against JAK3 tyrosine kinase, 7.08. At JAK3 tyrosine kinase, `C[C@H](Nc1cc(Nc2ncccn2)cc(Nc2cnccn2)n1)c1ccc(F)cc1` [Example 131, (S)—N^2-[1-(4-Fluorophenyl)ethyl]-N^6-(pyrazin-2-yl)-N^4-(pyrimidin-2-yl)pyridine-2,4,6-triamine] had a pIC50 of 6.74.

As to `C[C@H](Nc1cc(OCC2CC2)cc(Nc2cnccn2)n1)c1ccc(F)cc1` [Example 138, (S)-4-(Cyclopropylmethoxy)-N^2-[1-(4-fluorophenyl)ethyl]-N^6-(pyrazin-2-yl)pyridine-2,6-diamine], the pIC50 against JAK3 tyrosine kinase was 6.38. On the same count and under the same terms, under `C[C@H](Nc1cc(C(N)=O)cc(Nc2cnccn2)n1)c1ccc(F)cc1` [Example 145, (S)-2-[1-(4-Fluorophenyl)ethylamino]-6-(pyrazin-2-ylamino)isonicotinamide] stands 7.44; under `COC(=O)c1cc(Nc2cnccn2)nc(N[C@@H](C)c2ccc(F)cc2)c1` [Example 134, Methyl (S)-2-[1-(4-fluorophenyl)ethylamino]-6-(pyrazin-2-ylamino)isonicotinate], 6.21.

On JAK2 tyrosine kinase, `CC(C)C1(O)CN(c2cc(Nc3cnccn3)nc(N[C@@H](C)c3ccc(F)cc3)n2)C1` [Example 201, (S)-1-{2-[1-(4-Fluorophenyl)ethylamino]-6-(pyrazin-2-ylamino)pyrimidin-4-yl}-3-isopropylazetidin-3-ol hydrochloride] showed a pIC50 of 9.39. Molecule `C[C@H](Nc1cc(-c2ncon2)cc(Nc2cnccn2)n1)c1ccc(F)cc1` [Example 147, (S)—N^2-[1-(4-Fluorophenyl)ethyl]-4-(1,2,4-oxadiazol-3-yl)-N^6-(pyrazin-2-yl)pyridine-2,6-diamine hydrochloride] gave a pIC50 on JAK3 tyrosine kinase of 6.04. Turning to `C[C@H](Nc1nc(C#N)cc(Nc2cnccn2)n1)c1ccc(F)cc1` [Example 143, (S)-2-[1-(4-Fluorophenyl)ethylamino]-6-(pyrazin-2-ylamino)pyrimidine-4-carbonitrile], the pIC50 against JAK3 tyrosine kinase is 5.68. On the same count and under the same terms, under `C[C@H](Nc1cc(C(=O)NCCN(C)C)cc(Nc2cnccn2)n1)c1ccc(F)cc1` [Example 150, (S)—N-[2-(Dimethylamino)ethyl]-2-[1-(4-fluorophenyl)ethylamino]-6-(pyrazin-2-ylamino)isonicotinamide] stands 6.82; under `C[C@H](Nc1cc(OC2CCOCC2)cc(Nc2cnccn2)n1)c1ccc(F)cc1` [Example 157, (S)—N^2-[1-(4-Fluorophenyl)ethyl]-N^6-(pyrazin-2-yl)-4-(tetrahydro-2H-pyran-4-yloxy)pyridine-2,6-diamine hydrochloride], 6.82. The same measure, in the same setting: the result for `C[C@H](Nc1cc(N2CCC(O)CC2)cc(Nc2cnccn2)n1)c1ccc(F)cc1` [Example 129, (S)-1-{2-[1-(4-Fluorophenyl)ethylamino]-6-(pyrazin-2-ylamino)pyridin-4-yl}piperidin-4-ol] reads 6.42; that for `C[C@H](Nc1cc(C(=O)NCc2ccccc2)cc(Nc2cnccn2)n1)c1ccc(F)cc1` [Example 162, (S)—N-Benzyl-2-[1-(4-fluorophenyl)ethylamino]-6-(pyrazin-2-ylamino)isonicotinamide hydrochloride], 6.43. On the same count and under the same terms, under `COCCNC(=O)c1cc(Nc2cnccn2)nc(N[C@@H](C)c2ccc(F)cc2)c1` [Example 165, (S)-2-[1-(4-Fluorophenyl)ethylamino]-N-(2-methoxyethyl)-6-(pyrazin-2-ylamino)isonicotinamide] stands 6.44. `C[C@H](Nc1cc(C(=O)NC2CC2)cc(Nc2cnccn2)n1)c1ccc(F)cc1` [Example 163, (S)—N-Cyclopropyl-2-[1-(4-fluorophenyl)ethylamino]-6-(pyrazin-2-ylamino)isonicotinamide] gave a pIC50 at JAK3 tyrosine kinase of 6.77. With `C[C@H](Nc1nc(Nc2cnccn2)cc(N2CC(C(=O)N(C)C)C2)n1)c1ccc(F)cc1` [Example 176, (S)-1-{2-[1-(4-Fluorophenyl)ethylamino]-6-(pyrazin-2-ylamino)pyrimidin-4-yl}-N,N-dimethylazetidin-3-carboxamide], the pIC50 on JAK2 tyrosine kinase is 9.02.

Broadly, the pIC50 is the IC50 on a negative log10 scale, so that one unit is a factor of ten. A high value points to a low IC50.
